Laboratory results from US20220031800A1, “PEPTIDES FOR TREATING NON-EXUDATIVE MACULAR DEGENERATION AND OTHER DISORDERS OF THE EYE” (Allegro Pharmaceuticals, LLC, priority 2019, published 2022).
Square brackets hold non-standard residues; d marks the D form. Peptide text beside a SMILES is read from it. Cya = N[C@@H](CS(=O)(=O)O)C(=O)O

What was measured:
[1] = test system: study eye of subjects with intermediate non-exudative AMD; assay: SD-OCT Analysis 1 (thickness and volume of retinal layers, EZ defect area, GA); type: in vivo, human
Description: Numerous study assessments were conducted at various time points throughout the study. Included among these study assessments were; refractive eye examinations, determinations of BCVA AND low-luminance BCVA, Lanthony D-15 color vision test, measurement of intraocular pressure (IOP), Indirect ophthalmoscopy/dilated fundus examinations and spectral-domain optical coherence tomography (SD-OCT). Also, blood and saliva samples were obtained from each subject for genetic analysis. The above-listed study assessments were performed at the time points indicated in Table 1, below: The OCT scans were analyzed by two (2) unrelated experts. The mean thickness and mean volume of retinal subfields and layer segments were analyzed at screening (pre-treatment) and at Week 12 for Group 1 subjects and at Week 32 for Group 2 subjects. In addition to the quantitative analysis of OCT images, a qualitative assessment of the OCT images at baseline (pre-treatment) was performed to identify GA anywhere in the retina, in the fovea (1-mm central subfield), and in the foveal center. Quantitative analysis of the OCT images was also performed to measure changes in anatomical measurements over time.

[2] = test system: study eye of subjects with intermediate non-exudative AMD; assay: Low-luminance visual acuity; type: in vivo, human
Description: Numerous study assessments were conducted at various time points throughout the study. Included among these study assessments were; refractive eye examinations, determinations of BCVA AND low-luminance BCVA, Lanthony D-15 color vision test, measurement of intraocular pressure (IOP), Indirect ophthalmoscopy/dilated fundus examinations and spectral-domain optical coherence tomography (SD-OCT). Also, blood and saliva samples were obtained from each subject for genetic analysis. The above-listed study assessments were performed at the time points indicated in Table 1, below: Table 10, below, summarizes low-luminescence visual acuity in the study subjects.

[3] = baseline to Week 32, risuteganib arm n = 22
[4] = risuteganib arm (Week 32) vs sham arm (Week 12)
[5] = Week 12, Group 2 (1 mg IVT day 1 + wk 16)
[6] = Week 32, Group 1 crossover (sham day 1, 1 mg IVT wk 16)
[7] = Week 32, Group 2 (1 mg IVT day 1 + wk 16)
[8] = Week 32 change, Group 1 crossover (sham day 1, 1 mg IVT wk 16)
[9] = Week 32 change, Group 2 (1 mg IVT day 1 + wk 16)

C[C@@H](O)[C@H](NC(=O)[C@H](CS(=O)(=O)O)NC(=O)CNC(=O)[C@H](CCCNC(=N)N)NC(=O)CN)C(=O)N1CCC[C@H]1C(=O)O [risuteganib, Glycyl-L-arginylglycyl-3-sulfo-L-alanyl-L-threonyl-L-proline] (H-GRG[Cya]TP-OH)
Mean change in total volume: Outer retina, inferior subfield [1, 3]: −0.004 mm^3 | Mean change in total volume: Outer retina, nasal subfield [1, 3]: −0.002 mm^3 | Mean change in total volume: Outer retina, superior subfield [1, 3]: −0.000 mm^3 | Mean change in total volume: Outer retina, temporal subfield [1, 3]: −0.004 mm^3 | Mean change in total volume: Photoreceptor, central subfield [1, 3]: −0.001 mm^3 | Mean change in total volume: Photoreceptor, inferior subfield [1, 3]: −0.001 mm^3 | Mean change in total volume: Photoreceptor, nasal subfield [1, 3]: −0.000 mm^3 | Mean change in total volume: Photoreceptor, superior subfield [1, 3]: 0.000 mm^3 | Mean change in total volume: Photoreceptor, temporal subfield [1, 3]: −0.000 mm^3 | Mean change in total volume: RPEDC, central subfield [1, 3]: −0.001 mm^3 | Mean change in total volume: RPEDC, inferior subfield [1, 3]: 0.001 mm^3 | Mean change in total volume: RPEDC, nasal subfield [1, 3]: 0.001 mm^3 | Mean change in total volume: RPEDC, superior subfield [1, 3]: 0.003 mm^3 | Mean change in total volume: RPEDC, temporal subfield [1, 3]: 0.001 mm^3 | Change in EZ defect area, Difference [1, 4]: 0.025 mm^2 | Mean change in mean thickness: Inner retina, central subfield, Difference [1, 4]: 0.690 μm | Mean change in mean thickness: Inner retina, foveal center, Difference [1, 4]: 15.404 μm | Mean change in mean thickness: Inner retina, inferior subfield, Difference [1, 4]: −1.607 μm | Mean change in mean thickness: Inner retina, nasal subfield, Difference [1, 4]: −0.949 μm | Mean change in mean thickness: Inner retina, superior subfield, Difference [1, 4]: −4.188 μm | Mean change in mean thickness: Inner retina, temporal subfield, Difference [1, 4]: 0.092 μm | Mean change in mean thickness: Outer retina, central subfield, Difference [1, 4]: −3.812 μm | Mean change in mean thickness: Outer retina, foveal center, Difference [1, 4]: −14.794 μm | Mean change in mean thickness: Outer retina, inferior subfield, Difference [1, 4]: 0.460 μm | Mean change in mean thickness: Outer retina, nasal subfield, Difference [1, 4]: 1.388 μm | Mean change in mean thickness: Outer retina, superior subfield, Difference [1, 4]: 0.768 μm | Mean change in mean thickness: Outer retina, temporal subfield, Difference [1, 4]: −1.158 μm | Mean change in mean thickness: Photoreceptor, central subfield, Difference [1, 4]: −2.545 μm | Mean change in mean thickness: Photoreceptor, foveal center, Difference [1, 4]: 1.342 μm | Mean change in mean thickness: Photoreceptor, inferior subfield, Difference [1, 4]: −0.781 μm | Mean change in mean thickness: Photoreceptor, nasal subfield, Difference [1, 4]: −0.379 μm | Mean change in mean thickness: Photoreceptor, superior subfield, Difference [1, 4]: −0.161 μm | Mean change in mean thickness: Photoreceptor, temporal subfield, Difference [1, 4]: −0.694 μm | Mean change in mean thickness: RPEDC, central subfield, Difference [1, 4]: −0.167 μm | Mean change in mean thickness: RPEDC, foveal center, Difference [1, 4]: −1.402 μm | Mean change in mean thickness: RPEDC, inferior subfield, Difference [1, 4]: 1.623 μm | Mean change in mean thickness: RPEDC, nasal subfield, Difference [1, 4]: −0.511 μm | Mean change in mean thickness: RPEDC, superior subfield, Difference [1, 4]: 2.739 μm | Mean change in mean thickness: RPEDC, temporal subfield, Difference [1, 4]: 2.536 μm | Mean change in total volume: Inner retina, central subfield, Difference [1, 4]: 0.001 mm^3 | Mean change in total volume: Inner retina, inferior subfield, Difference [1, 4]: −0.002 mm^3 | Mean change in total volume: Inner retina, nasal subfield, Difference [1, 4]: −0.002 mm^3 | Mean change in total volume: Inner retina, superior subfield, Difference [1, 4]: −0.007 mm^3 | Mean change in total volume: Inner retina, temporal subfield, Difference [1, 4]: 0.000 mm^3 | Mean change in total volume: Outer retina, central subfield, Difference [1, 4]: −0.003 mm^3 | Mean change in total volume: Outer retina, inferior subfield, Difference [1, 4]: 0.001 mm^3 | Mean change in total volume: Outer retina, nasal subfield, Difference [1, 4]: 0.002 mm^3 | Mean change in total volume: Outer retina, superior subfield, Difference [1, 4]: 0.001 mm^3 | Mean change in total volume: Outer retina, temporal subfield, Difference [1, 4]: −0.002 mm^3 | Mean change in total volume: Photoreceptor, central subfield, Difference [1, 4]: −0.002 mm^3 | Mean change in total volume: Photoreceptor, inferior subfield, Difference [1, 4]: −0.002 mm^3 | Mean change in total volume: Photoreceptor, nasal subfield, Difference [1, 4]: −0.001 mm^3 | Mean change in total volume: Photoreceptor, superior subfield, Difference [1, 4]: −0.000 mm^3 | Mean change in total volume: Photoreceptor, temporal subfield, Difference [1, 4]: −0.001 mm^3 | Mean change in total volume: RPEDC, central subfield, Difference [1, 4]: −0.000 mm^3 | Mean change in total volume: RPEDC, inferior subfield, Difference [1, 4]: 0.002 mm^3 | Mean change in total volume: RPEDC, nasal subfield, Difference [1, 4]: −0.001 mm^3 | Mean change in total volume: RPEDC, superior subfield, Difference [1, 4]: 0.005 mm^3 | Mean change in total volume: RPEDC, temporal subfield, Difference [1, 4]: 0.004 mm^3 | Low-luminance visual acuity letters read, mean [2, 5]: 46.4 letters read | Low-luminance visual acuity letters read, median [2, 5]: 48.0 letters read | Low-luminance visual acuity change in letters read, median ([2]; Week 12 change, Group 2 (1 mg IVT day 1 + wk 16)): −1.0 letters read | Low-luminance visual acuity letters read, mean [2, 6]: 50.7 letters read | Low-luminance visual acuity letters read, median [2, 6]: 57.0 letters read | Low-luminance visual acuity letters read, mean [2, 7]: 49.4 letters read | Low-luminance visual acuity letters read, median [2, 7]: 51.0 letters read | Low-luminance visual acuity change in letters read, mean [2, 8]: 2.6 letters read | Low-luminance visual acuity change in letters read, median [2, 8]: 3.0 letters read | Low-luminance visual acuity change in letters read, mean [2, 9]: 2.0 letters read | Low-luminance visual acuity change in letters read, median [2, 9]: 0.0 letters read
